{"source": "patent US8343778B2", "about": "“Microfluidic microarray assemblies and methods of manufacturing and using” (Simon Fraser University, priority 2004, dated 2013)", "origin": "cited, not measured here", "target": "T1, Ure2p (Saccharomyces cerevisiae, UniProt P23202)", "T1 sequence (P23202 1-354)": "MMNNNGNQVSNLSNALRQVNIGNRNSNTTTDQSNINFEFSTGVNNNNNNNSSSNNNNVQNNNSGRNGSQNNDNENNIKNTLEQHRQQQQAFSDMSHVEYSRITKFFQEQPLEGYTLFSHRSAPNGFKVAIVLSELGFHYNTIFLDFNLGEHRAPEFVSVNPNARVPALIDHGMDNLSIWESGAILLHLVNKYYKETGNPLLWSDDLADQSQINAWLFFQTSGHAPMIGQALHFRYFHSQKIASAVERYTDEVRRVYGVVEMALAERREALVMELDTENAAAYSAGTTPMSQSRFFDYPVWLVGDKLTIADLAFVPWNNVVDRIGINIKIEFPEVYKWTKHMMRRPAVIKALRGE", "settings": "high-density SMA of 1,3-dioxane-based small molecules exposed to fluorescently labeled Ure2p"}
{"substance": "uretupamine", "values": [{"measurement": "binding of fluorescently labeled Ure2p to arrayed small molecule", "result": "Ure2p-binding"}]}
